Experimental data reported in paper PMC13213488, “Small Molecule Activators of Protein Phosphatase 2A Exert Global Stabilizing Effects on the Scaffold PR65” (JACS Au, 2026).

Target: T1, PR65 (Homo sapiens, UniProt P30153)
T1 construct: gene PPP2R1A; WT PR65 alone (scaffold, 15 HEAT repeats, no B or C subunit), expressed in E. coli C41 as GST fusion, GST tag cleaved with thrombin; also a variant with ybbR tags at N- and C-termini used for optical tweezers
Assay: nanoDSF thermal shift
Type: binding
Conditions: melting temperature with ligand, not a shift (apo 52.7 ± 0.1 °C); 2 μM PR65, 100 μM ligand, PBS, 2 mM DTT, 10% DMSO

T1 sequence (P30153 2-589): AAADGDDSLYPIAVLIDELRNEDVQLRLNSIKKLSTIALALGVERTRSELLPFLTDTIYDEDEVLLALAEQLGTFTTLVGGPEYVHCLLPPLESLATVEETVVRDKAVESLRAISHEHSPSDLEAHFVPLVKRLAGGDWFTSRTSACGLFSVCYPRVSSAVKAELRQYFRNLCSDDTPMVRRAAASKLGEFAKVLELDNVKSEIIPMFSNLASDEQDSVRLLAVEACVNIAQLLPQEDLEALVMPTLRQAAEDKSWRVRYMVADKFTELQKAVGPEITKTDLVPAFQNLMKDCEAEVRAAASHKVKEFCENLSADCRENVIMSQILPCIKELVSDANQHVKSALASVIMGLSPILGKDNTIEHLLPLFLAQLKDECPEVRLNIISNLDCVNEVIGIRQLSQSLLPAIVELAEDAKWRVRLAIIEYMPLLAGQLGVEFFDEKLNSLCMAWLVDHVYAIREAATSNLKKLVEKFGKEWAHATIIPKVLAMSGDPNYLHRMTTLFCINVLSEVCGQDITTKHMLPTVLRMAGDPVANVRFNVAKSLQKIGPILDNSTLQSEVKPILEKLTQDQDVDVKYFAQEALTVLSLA

Substance: DBK-766
- T m: 53.5 ± 0.1 °C
